Experimental findings from patent publication US20250115926A1, “DEREGULATED DHS AND TYRA ENZYMES OF GRASSES ENABLE EFFICIENT PRODUCTION OF BOTH TYROSINE AND PHENYLALANINE” (Wisconsin Alumni Research Foundation, priority 2023, published 2025) are described below.

Where “and” joins values, the source holds several entries; their conditions need not be identical. Equal values may be shown once. Where a name gives a salt, the structure may show the parent alone.

The subject of experiment [1] is Brachypodium distachyon DHS enzymes (BdDHS1a, BdDHS1b, BdDHS2). The experiment is described as follows: DHS activity: kinetics and effector inhibition, three isoforms together. It counts as biochemical. The settings on record: arogenate treated with 1N HCl for 30 minutes (FIG. 16A). The text has this: (§1) To examine their functional properties, the recombinant DHS enzymes of Brachypodium were produced and characterized in vitro.
(§2) As recent studies have shown that plant DHS enzymes are feedback-inhibited by multiple effector molecules^15, 16, we tested the effect of AAAs and another 14 related metabolites, including various intermediates of the shikimate pathway and the pathways downstream of AAAs, on Brachypodium DHS enzymes.
(§3) The DHS assay for UHPLC-MS quantification was set up using the same settings as described in the previous paragraph for the UV-based DHS assay, which guaranteed at least 10 minutes of reaction linearity. After a 10-minute incubation, 20 μL of the reactions (out of a total volume of 50 μL) were mixed into 80 μL of methanol, vortexed and transferred to vials for injection. Analysis of DAHP by UHPLC-MS was conducted using the same chromatographic settings as described for the UHPLC-MS analysis of soluble metabolites and compared with an authentic DAHP standard (Sta. Cruz biotechnology, cat. no. sc-216432).

In experiment [2] the target is Arabidopsis thaliana AtDHS2 (Arabidopsis thaliana, UniProt Q00218). Nature of the experiment: DHS inhibition assay with hydrolyzed arogenate. In kind it is biochemical. The conditions noted are these: arogenate treated with 1N HCl for 30 minutes (FIG. 16A).
Arabidopsis thaliana AtDHS2, sequence (Q00218 2-507): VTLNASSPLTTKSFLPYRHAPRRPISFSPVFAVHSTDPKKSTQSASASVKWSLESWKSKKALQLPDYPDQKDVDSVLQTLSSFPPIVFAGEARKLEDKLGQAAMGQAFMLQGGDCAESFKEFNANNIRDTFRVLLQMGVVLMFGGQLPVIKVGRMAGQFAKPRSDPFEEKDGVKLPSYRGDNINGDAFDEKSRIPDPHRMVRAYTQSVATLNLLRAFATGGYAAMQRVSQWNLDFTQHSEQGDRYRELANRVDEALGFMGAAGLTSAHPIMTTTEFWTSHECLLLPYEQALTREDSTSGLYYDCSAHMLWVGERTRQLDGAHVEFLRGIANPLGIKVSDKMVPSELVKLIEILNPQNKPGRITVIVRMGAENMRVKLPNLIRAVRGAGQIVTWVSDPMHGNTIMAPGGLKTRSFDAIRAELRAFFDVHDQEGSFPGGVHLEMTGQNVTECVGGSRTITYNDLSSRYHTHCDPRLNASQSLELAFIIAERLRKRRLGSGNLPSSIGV
Description: All DHS effectors tested were included in the initial reaction mixtures at a concentration of 0.5 mM, except for IC50 determination for arogenate and tryptophan, in which variable concentrations were used. To ensure at least 10 minutes of linear reaction, enzyme mass per reaction was carefully adjusted to between 100 to 300 ng (depending on the specific activity of each specific isoform) using DHS storage buffer supplemented with BSA. […] The enzymatic reaction was started with the addition of E4P (variable concentration, see below).
Experiment [3] concerns the target T1, Brachypodium distachyon BdTyrAnc (non-canonical TyrA), SEQ ID NO: 37, recombinant (Brachypodium distachyon, UniProt I1GYB3).
T1 construct: from cDNA
T1 sequence (I1GYB3 58-361): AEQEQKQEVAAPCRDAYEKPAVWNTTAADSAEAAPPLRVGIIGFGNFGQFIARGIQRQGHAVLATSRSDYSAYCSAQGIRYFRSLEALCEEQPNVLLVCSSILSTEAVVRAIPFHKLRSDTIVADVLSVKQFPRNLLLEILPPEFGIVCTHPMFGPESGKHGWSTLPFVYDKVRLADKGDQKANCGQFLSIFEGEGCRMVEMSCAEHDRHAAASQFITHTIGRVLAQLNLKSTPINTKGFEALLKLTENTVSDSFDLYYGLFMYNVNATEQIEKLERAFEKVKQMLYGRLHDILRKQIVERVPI
The experiment is described as follows: TyrA arogenate dehydrogenase kinetics and tyrosine inhibition (340 nm). In kind it is biochemical. The settings on record: arogenate and NADP^+. The text has this: (§4) Next, to study the biochemical properties of grass TyrA enzymes, we generated and characterized recombinant purified TyrA proteins from Brachypodium (BdTyrA) and Sorghum (SbTyrA), two distantly related grass species^43, 44. Whereas TyrA enzymes from dicot plants are generally NADP^+-dependent arogenate dehydrogenases^20, 39, 45, except for NADP^+-prephenate dehydrogenases in the legume family^40, 46, previous reports on the substrate preference of grass TyrA enzymes are inconclusive^17, 19. […] NAD^+-prephenate dehydrogenase activity was absent in all cases, ruling out a significant contamination of the enzyme preparations with the TyrA enzyme from E. coli^47.48.

Experiment [4] addresses T2, Sorghum bicolor SbTyrAnc (non-canonical TyrA), SEQ ID NO: 43, recombinant (Sorghum bicolor, UniProt C5Z447).
T2 construct: from cDNA
T2 sequence (C5Z447 56-382): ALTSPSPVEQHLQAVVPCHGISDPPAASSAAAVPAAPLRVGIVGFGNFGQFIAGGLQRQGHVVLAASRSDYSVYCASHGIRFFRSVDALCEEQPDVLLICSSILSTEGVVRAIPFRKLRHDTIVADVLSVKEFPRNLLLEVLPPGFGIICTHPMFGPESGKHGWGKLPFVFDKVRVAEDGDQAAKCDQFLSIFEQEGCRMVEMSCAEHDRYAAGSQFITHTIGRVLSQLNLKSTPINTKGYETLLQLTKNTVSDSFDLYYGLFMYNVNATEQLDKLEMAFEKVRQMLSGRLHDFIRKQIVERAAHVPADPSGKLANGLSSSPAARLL
The experiment is described as above. The conditions noted are these: arogenate and NADP^+. In kind it is biochemical.
Description: as §4

For experiment [5], the target named is Brachypodium distachyon BdDHS1a, SEQ ID NO: 1, recombinant (Brachypodium distachyon, UniProt I1GSB3). Nature of the experiment: DHS activity: kinetics and effector inhibition.
Brachypodium distachyon BdDHS1a, SEQ ID NO: 1, recombinant, sequence (I1GSB3 46-537): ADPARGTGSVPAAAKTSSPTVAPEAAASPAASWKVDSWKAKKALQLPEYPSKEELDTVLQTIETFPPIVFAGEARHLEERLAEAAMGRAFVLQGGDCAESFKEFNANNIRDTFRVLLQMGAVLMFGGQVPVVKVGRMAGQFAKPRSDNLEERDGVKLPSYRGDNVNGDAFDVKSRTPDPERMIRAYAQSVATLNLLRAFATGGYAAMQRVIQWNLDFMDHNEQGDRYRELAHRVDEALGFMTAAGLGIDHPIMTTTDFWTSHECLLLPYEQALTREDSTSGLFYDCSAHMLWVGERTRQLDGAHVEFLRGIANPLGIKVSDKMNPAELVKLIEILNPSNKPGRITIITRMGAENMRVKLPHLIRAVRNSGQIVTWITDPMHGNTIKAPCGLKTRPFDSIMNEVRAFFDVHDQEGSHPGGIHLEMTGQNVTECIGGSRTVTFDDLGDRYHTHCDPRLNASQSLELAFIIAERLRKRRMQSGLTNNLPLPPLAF
Description: as §1, §2, §3

In experiment [6] the target is Brachypodium distachyon BdDHS1b, SEQ ID NO: 3, recombinant (Brachypodium distachyon, UniProt I1H4W3). Nature of the experiment: DHS activity: kinetics and effector inhibition. In kind it is biochemical.
Brachypodium distachyon BdDHS1b, SEQ ID NO: 3, recombinant, sequence (I1H4W3 37-542): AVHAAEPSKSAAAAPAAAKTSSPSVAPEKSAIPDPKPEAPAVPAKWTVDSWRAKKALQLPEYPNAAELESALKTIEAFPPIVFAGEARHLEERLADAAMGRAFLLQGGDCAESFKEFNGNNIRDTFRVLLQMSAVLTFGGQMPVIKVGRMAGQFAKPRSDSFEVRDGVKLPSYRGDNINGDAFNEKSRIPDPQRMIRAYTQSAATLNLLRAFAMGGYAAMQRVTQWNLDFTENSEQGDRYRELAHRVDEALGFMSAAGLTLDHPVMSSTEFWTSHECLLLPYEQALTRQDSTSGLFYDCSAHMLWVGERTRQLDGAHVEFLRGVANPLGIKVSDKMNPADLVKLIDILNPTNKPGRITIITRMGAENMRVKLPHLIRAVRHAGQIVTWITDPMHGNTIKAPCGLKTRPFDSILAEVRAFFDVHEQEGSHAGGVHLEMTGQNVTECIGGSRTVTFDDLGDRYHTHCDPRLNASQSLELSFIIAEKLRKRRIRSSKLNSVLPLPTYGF
Description: as §1, §2, §3

Experiment [7] addresses Brachypodium distachyon BdDHS2, SEQ ID NO: 5, recombinant (Brachypodium distachyon, UniProt I1I809). Nature of the experiment: DHS activity: kinetics and effector inhibition. It counts as biochemical.
Description: as §1, §2, §3

Experiment [8] addresses Sorghum bicolor SbDHS1a, SEQ ID NO: 9, recombinant (Sorghum bicolor, UniProt C5X2H5). The experiment is described as follows: DHS activity: effector inhibition. In kind it is biochemical. The settings on record: effector 0.5 mM. The procedure: (§5) In contrast, BdDHS1b was not inhibited by arogenate even up to 2.5 mM. In fact, DHS1b activity increased in the presence of high concentrations of arogenate (FIG. 4F), likely due to high concentrations of contaminant NaCl present in the arogenate preparation (FIG. 16). Under acidic conditions, arogenate is known to undergo a spontaneous dehydration and decarboxylation into […]. […] Like in Brachypodium DHS enzymes, 0.5 mM arogenate inhibited SbDHS1a and SbDHS2 at ˜50% and ˜40%, respectively, but had no effect on SbDHS1b.

Experiment [9] deals with Sorghum bicolor SbDHS1b, SEQ ID NO: 11, recombinant (Sorghum bicolor, UniProt C5WXQ3). The experiment is described as follows: DHS activity: effector inhibition. It counts as biochemical. The settings on record: effector 0.5 mM. The procedure: as §5
Sorghum bicolor SbDHS1b, SEQ ID NO: 11, recombinant, sequence (C5WXQ3 48-551): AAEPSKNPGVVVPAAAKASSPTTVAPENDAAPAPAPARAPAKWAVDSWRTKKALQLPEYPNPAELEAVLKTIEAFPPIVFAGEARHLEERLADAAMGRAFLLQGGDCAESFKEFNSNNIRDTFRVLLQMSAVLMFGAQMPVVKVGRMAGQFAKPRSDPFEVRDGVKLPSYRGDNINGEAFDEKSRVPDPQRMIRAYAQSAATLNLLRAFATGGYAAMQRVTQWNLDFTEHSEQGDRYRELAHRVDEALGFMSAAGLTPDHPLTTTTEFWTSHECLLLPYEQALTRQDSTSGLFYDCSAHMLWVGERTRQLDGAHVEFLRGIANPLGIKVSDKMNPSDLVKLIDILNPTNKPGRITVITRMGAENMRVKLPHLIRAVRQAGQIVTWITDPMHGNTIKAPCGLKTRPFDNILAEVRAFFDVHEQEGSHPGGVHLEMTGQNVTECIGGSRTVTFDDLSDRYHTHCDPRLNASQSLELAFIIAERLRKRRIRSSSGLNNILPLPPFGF
For experiment [10], the target named is T3, Sorghum bicolor SbDHS2, SEQ ID NO: 13, recombinant (Sorghum bicolor, UniProt C5YJQ4).
T3 construct: pET28a (NdeI/BamHI), E. coli KRX
T3 sequence (C5YJQ4 42-508): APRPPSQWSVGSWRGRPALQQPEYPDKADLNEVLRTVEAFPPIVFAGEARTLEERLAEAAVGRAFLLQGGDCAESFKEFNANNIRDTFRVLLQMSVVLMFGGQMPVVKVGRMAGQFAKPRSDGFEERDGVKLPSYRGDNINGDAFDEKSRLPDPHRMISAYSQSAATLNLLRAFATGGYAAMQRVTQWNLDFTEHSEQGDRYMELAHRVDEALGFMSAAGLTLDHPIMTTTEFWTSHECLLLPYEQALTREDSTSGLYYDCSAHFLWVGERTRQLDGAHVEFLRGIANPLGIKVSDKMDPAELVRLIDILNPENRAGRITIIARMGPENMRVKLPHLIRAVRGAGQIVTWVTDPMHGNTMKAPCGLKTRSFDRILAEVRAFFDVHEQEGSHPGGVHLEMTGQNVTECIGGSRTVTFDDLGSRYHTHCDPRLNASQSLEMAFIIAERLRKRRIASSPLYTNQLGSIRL
The experiment is described as follows: DHS activity: effector inhibition. In kind it is biochemical. The settings on record: effector 0.5 mM. The procedure: as §5

For orientation: kcat/Km means the turnover number divided by the Michaelis constant. As a reminder, the IC50 is the concentration that gives 50% inhibition. What is called inhibition is the relative decrease from the control value, in per cent.

Brachypodium distachyon BdDHS2, SEQ ID NO: 5, recombinant, sequence (I1I809 31-503): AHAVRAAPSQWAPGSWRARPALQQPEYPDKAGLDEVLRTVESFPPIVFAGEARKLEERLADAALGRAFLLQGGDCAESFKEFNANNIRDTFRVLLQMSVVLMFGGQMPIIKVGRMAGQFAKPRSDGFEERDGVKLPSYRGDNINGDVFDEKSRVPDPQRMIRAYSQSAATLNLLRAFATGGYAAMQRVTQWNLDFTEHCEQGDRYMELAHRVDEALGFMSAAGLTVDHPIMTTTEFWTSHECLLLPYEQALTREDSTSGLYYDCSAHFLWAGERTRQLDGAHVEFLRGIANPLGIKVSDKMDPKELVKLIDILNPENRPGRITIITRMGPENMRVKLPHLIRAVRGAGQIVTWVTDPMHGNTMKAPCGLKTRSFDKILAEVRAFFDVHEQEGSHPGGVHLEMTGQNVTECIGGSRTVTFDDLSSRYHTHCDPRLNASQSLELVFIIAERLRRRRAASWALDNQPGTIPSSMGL
Sorghum bicolor SbDHS1a, SEQ ID NO: 9, recombinant, sequence (C5X2H5 46-540): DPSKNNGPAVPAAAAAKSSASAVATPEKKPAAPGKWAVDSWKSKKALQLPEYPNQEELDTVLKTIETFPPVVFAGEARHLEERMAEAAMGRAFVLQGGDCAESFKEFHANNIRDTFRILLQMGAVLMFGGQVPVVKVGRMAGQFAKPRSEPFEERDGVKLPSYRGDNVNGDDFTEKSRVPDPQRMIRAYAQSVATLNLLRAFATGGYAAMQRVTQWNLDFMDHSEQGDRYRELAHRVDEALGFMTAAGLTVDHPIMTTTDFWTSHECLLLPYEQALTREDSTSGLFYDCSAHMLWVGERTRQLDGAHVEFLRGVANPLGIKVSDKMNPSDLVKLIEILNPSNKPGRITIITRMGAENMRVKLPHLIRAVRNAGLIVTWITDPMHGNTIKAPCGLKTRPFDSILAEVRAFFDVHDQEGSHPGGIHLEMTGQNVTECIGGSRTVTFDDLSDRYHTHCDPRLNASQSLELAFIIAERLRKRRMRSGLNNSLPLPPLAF

On to `N[C@@H](Cc1ccccc1)C(=O)O` [Arogenate incubated with HCl], for which the “inhibition by hydrolyzed arogenate” value in experiment [1] is “did not inhibit”; in experiment [1] (listed as Arogenate that is hydrolyzed to phenylalanine) it was “does not inhibit”; in experiment [2], “does not inhibit”.
On to `N[C@@H](CC1(C(=O)O)C=CC(O)C=C1)C(=O)O` (stereo partly shown) [arogenate], for which the results for the kcat/Km in [3] and in experiment [4] were 579600 ± 24300 M⁻¹ s⁻¹ and 337500 ± 19500 M⁻¹ s⁻¹, respectively. In addition, the IC50 is ~285 µM and 285 µM in experiment [5] (IC50 (arogenate), 1.5 mM PEP, 2 mM E4P); over 500 µM in experiment [6] (read-out: IC50 (arogenate)); ~91 µM and 91 µM in experiment [7] (1.5 mM PEP, 2 mM E4P, read-out: IC50 (arogenate)). The inhibition at 500 µM in experiment [5] (read-out: inhibition at 0.5 mM) was about 50%; in [7] (effector 0.5 mM, read-out: inhibition at 0.5 mM), over 75%; in experiment [8], about 50%; in experiment [10] it was about 40%. For the same compound, the “inhibition by arogenate up to 2.5 mM” value in [6] (even up to 2.5 mM) is “not inhibited”. For the same compound, the “mode of inhibition with respect to E4P” value in [7] (FIG. 18) is “uncompetitive inhibition kinetics”. Besides, the “mode of inhibition with respect to PEP” value in experiment [7] (FIG. 18) is recorded as “mixed inhibition mechanism”. Further, in [9], the “effect at 0.5 mM” value is given as “no effect”.
